Measurements as given in patent publication US8093387B2, “Process of making crystalline type II aripiprazole” (Synthon BV, priority 2005, dated 2012).
Read-outs that look alike come from different tables or passages of the source.

What was measured:
[1] = as taught by WO 03/26659 (EP 1330249); cited from earlier work
[2] = hygroscopicity of solid state forms of aripiprazole; assay type: physicochemical; details: crystalline Type II, not milled

SMILES | hygroscopicity [1] | hygroscopicity [2]
O=C1CCc2ccc(OCCCCN3CCN(c4cccc(Cl)c4Cl)CC3)cc2N1 [Type I aripiprazole, 7-[4-[4-(2,3-dichlorophenyl)-1-piperazinyl]butoxy]-3,4-dihydrocarbostyril] | significantly hygroscopic | 
O=C1CCc2ccc(OCCCCN3CCN(c4cccc(Cl)c4Cl)CC3)cc2N1 [Type II aripiprazole, 7-[4-[4-(2,3-dichlorophenyl)-1-piperazinyl]butoxy]-3,4-dihydrocarbostyril] |  | not hygroscopic
